Key:
Estrogen receptor [1] = biological target: T1, Estrogen receptor (Homo sapiens, UniProt Q92731+P03372)
Ishikawa = assay: cells; conditions: Homo sapiens
Description: Stimulation of alkaline phosphatase activity in Ishikawa human endometrial adenocarcinoma cells

Estrogen receptor [2] = biological target: T1, Estrogen receptor; assay: Displacement of [3H]17-beta-estradiol from Estrogen receptor of rabbit uterine tissue; assay type: protein assay, Oryctolagus cuniculus; conditions: target entry is the homologue from another species

Compound | IC50 (Estrogen receptor [1]) [nM] | EC50 (Ishikawa) [nM] | IC50 (Estrogen receptor [2]) [nM]
Oc1ccc2c(c1)OC[C@H](c1ccccc1)[C@@H]2c1ccc(OCCN2CCCCC2)cc1 (racemic) | 3.1 | 0.7 | –
Oc1ccc2c(c1)OC[C@H](c1ccccc1)[C@@H]2c1ccc(OCCN2CCCC2)cc1 (racemic) | 19 | 0.9 | –
Oc1ccc2c(c1)OC[C@H](c1ccccc1)[C@@H]2c1ccc(SCCN2CCCCC2)cc1 (racemic) | 9.7 | 1.8 | –
Cl.Oc1ccc2c(c1)OC[C@H](c1ccccc1)[C@@H]2c1ccc(SCCN2CCCC2)cc1 (racemic) | 6.5 | 0.5 | –
C#C[C@]1(O)CC[C@H]2C3CCc4cc(O)ccc4[C@H]3[C@@H](OC)C[C@@]21C (single isomer, unassigned) [MOXESTROL] | – | 0.08 | 2.9
CC/C(=C(\c1ccc(I)cc1)c1ccc(OCCN2CCCC2)cc1)c1ccccc1 [IDOXIFENE] | 7.5 | 7 | –
COc1ccc2c(c1)OC(C)(C)[C@@H](c1ccccc1)[C@@H]2c1ccc(OCCN2CCCC2)cc1 [LEVORMELOXIFENE] | 73 | 13 | –
O=C(c1ccc(OCCN2CCCCC2)cc1)c1c(-c2ccc(O)cc2)sc2cc(O)ccc12 [RALOXIFENE] | – | 0.04 | –

Reference: ChEMBL document CHEMBL1135087, “Synthesis and biological evaluation of novel thio-substituted chromanes as high-affinity partial agonists for the estrogen receptor” (Bioorg Med Chem Lett, 2002)
